Data: US20040171566A1, “Antisense modulation of p38 mitogen activated protein kinase expression” (priority 1999, published 2004)

Experiments:
[1] = system: ovalbumin (OVA)-induced airway hyperresponsiveness; assay: Mouse model of allergic inflammation (OVA), intratracheal oligonucleotide administration; type: in vivo; conditions: OVA mice
Procedure: In the mouse model of allergic inflammation, mice were sensitized and challenged with aerosolized chicken ovalbumin (OVA). Airway responsiveness was assessed by inducing airflow obstruction with a methacholine aerosol using a noninvasive method. This methodology utilized unrestrained conscious mice that are placed into the main chamber of a plthysmograph (Buxco Electronics, Inc., Troy, N.Y.). Pressure differences between this chamber and a reference chamber were used to extrapolate minute volume, breathing frequency and enhanced pause (Penh). […] This parameter closely correlates with lung resistance as measured by traditional invasive techniques using ventilated animals (Hamelmann et al., 1997). […]
For intratracheal administration of ISIS 101757, female Balb/c mice (Charles Rivers Laboratory, Taconic Farms, N.Y.) were maintained in micro-isolator cages housed in a specific pathogen-free (SPF) facility. […] Animals were analyzed about 24 hours following the last nebulization using the Buxco electronics Biosystem. Lung function (Penh), lung histology (cell infiltration and mucus production), target mRNA reduction in the lung, inflammation (BAL cell type & number, cytokine levels), spleen weight and serum AST/ALT were determined. […]

[2] = mouse, in vivo
Procedure: For the aerosol studies, the protocol described above was slightly modified. Male Balb/c mice were injected IP with OVA (20 μg) in aluminum hydroxide on days 0 and 14. Aerosol dosing was performed with nebulized sterile saline, antisense oligonucleotide or mismatched control oligonucleotide using 25, 125 and 250 μg/ml solutions (5 mg/kg) for 30 min. on days 14-20 in a closed chamber. Aerosol lung challenge was carried out with nebulized saline or 1% OVA for 20 min. on days 18, 19 and 20. BAL fluid was collected at 24 hr post-last lung challenge (cell differentials) or at 2-12 h post-challenge (cytokine analysis). AHR was measured 24 hours after OVA challenge. Mice were exposed to aerosolized methacholine 24 hr post-last lung challenge from 2-80 mg/ml for 3 min. until a 200% increase in Penh was achieved.

[3] = system: ovalbumin (OVA)-induced airway hyperresponsiveness and allergic inflammation; assay: Mouse model of allergic inflammation (OVA), aerosol oligonucleotide administration; type: in vivo
Procedure: In the mouse model of allergic inflammation, mice were sensitized and challenged with aerosolized chicken ovalbumin (OVA). Airway responsiveness was assessed by inducing airflow obstruction with a methacholine aerosol using a noninvasive method. This methodology utilized unrestrained conscious mice that are placed into the main chamber of a plthysmograph (Buxco Electronics, Inc., Troy, N.Y.). Pressure differences between this chamber and a reference chamber were used to extrapolate minute volume, breathing frequency and enhanced pause (Penh). Penh is a dimensionless parameter that is a function of total pulmonary airflow in mice (i.e., the sum of the airflow in the upper and lower respiratory tracts) during the respiratory cycle of the animal. The lower the Penh, the greater the airflow. This parameter closely correlates with lung resistance as measured by traditional invasive techniques using ventilated animals (Hamelmann et al., 1997). Dose-response data were plotted as raw Penh values to increasing concentrations of methacholine. This system was used to test the efficacy of an antisense oligonucleotide targeted to mouse p38α (ISIS 101757; SEQ ID NO: 177). Mismatched p38α oligonucleotide (ISIS 101758; SEQ ID NO: 266) was used as a negative control.
[…]. […] AHR was measured 24 hours after OVA challenge.
Animals were injected with a lethal dose of ketamine, the trachea was exposed and a cannula was inserted and secured by sutures. The lungs were lavaged twice with 0.5 ml aliquots of ice cold PBS with 0.2% FCS. The recovered BAL fluid was centrifuged at 1,000 rpm for 10 min at 4° C., frozen on dry ice and stored at −80° C. until used. Luminex was used to measure cytokine levels in BAL fluid and serum.
Cytospins of cells recovered from BAL fluid were prepared using a Shandon Cytospin 3 (Shandon Scientific LTD, Cheshire, England). Cell differentials were performed from slides stained with Leukostat (Fisher Scientific, Pittsburgh, Pa.). Total cell counts were quantified by hemocytometer and, together with the percent type by differential, were used to calculate specific cell number.
Before resection, lungs were inflated with 0.5 ml of 10% phosphate-buffered formalin and fixed overnight at 4° C. The lung samples were washed free of formalin with 1×PBS and subsequently dehydrated through an ethanol series prior to equilibration in xylene and embedded in paraffin. Sections (6μ) were mounted on slides and stained with hematoxylin/eosin, massons trichome and periodic acid-schiff (PAS) reagent. Parasagittal sections were analyzed by bright-field microscopy. Mucus cell content was assessed as the airway epithelium staining with PAS. Relative comparisons of mucus content were made between cohorts of animals by counting the number of PAS-positive airways.

[4] = system: p38α mRNA; assay: Reduction of p38α mRNA in fibroblasts; type: cell-based; conditions: read-out: IC50 for reducing p38α mRNA
[5] = system: p38α; assay: p38α knock-down in mouse T cell line EL4, Western blotting; type: cell-based
[6] = sensitized mice, aerosol, compared to the mismatched control

## ISIS 101757: antisense oligonucleotide targeted to mouse p38α, SEQ ID NO 177; 2′-MOE gapmer, all phosphorothioate linkages (antisense AGGTGCTCAGGACTCCATTT; all phosphorothioate, sugars by position and methylation of C not given here; 2'-MOE gapmer)
[1]
  Penh response to methacholine (50 mg/ml) challenge: dose-dependent inhibition
[2]
  Oligonucleotide levels in lung tissue sufficient to achieve the pharmacological effects: up to 1 μg/g
[3]; OVA-challenged mice, inhaled
  provocation concentration of methacholine required to achieve doubling of airway reactivity (PC200): increases
[3]; OVA-sensitized mice, aerosol, whole body plethysmography
  methacholine-induced AHR: dose-dependently suppressed
[3]; aerosol
  OVA-induced increases in eosinophils recovered in BAL fluid: significantly (P<0.05) reduced
  OVA-induced increases in total cell counts recovered in BAL fluid: significantly (P<0.05) reduced
[3]; aerosol, histology
  OVA-induced inflammatory cell infiltration into the lungs (H&E stain): markedly inhibited
  mucus hypersecretion in the airway epithelium (PAS stain): markedly inhibited
[3]; [6]
  blood levels of OVA-specific IgE: significantly (P<0.05);lowered
  blood levels of OVA-specific IgG1: significantly (P<0.05);lowered
  blood levels of total IgE: significantly (P<0.05);lowered
[4]
  IC50: ~250 nM
[5]
  p38α knock-down effect: confirmed
